Data on 4 molecules can be found in patent US20150231199A1, “PEPTIDES AND THEIR USES” (priority 2012, published 2015).

≈ marks a conversion by molar mass, not a printed value. Like-named read-outs stand apart in the source and are kept apart here. Positions of bridges follow the written chain, without caps; N, C: chain ends. Residues, ends and D or L forms follow the SMILES beside them. Chains are numbered I, II in the order given. *: point of attachment. Lauroyl = CCCCCCCCCCCC(=O)*; Hexanoyl = CCCCCC(=O)*

The test system of data set [1] is Methicillin-resistant Staphylococcus aureus (MRSA). It is filed as cell-based. The method, then: (§1) V2-dimer and all lipopeptides (FIG. 1A) used in this study were purchased from Mimotopes. All peptides were prepared by dissolving in sterile water to make 1000 μg/mL stock solutions. Minimum Inhibitory Concentration (MIC) determination was carried out in Mueller Hinton Broth (MHB) using the broth macro-dilution method as described by the Clinical and Laboratory Standards Institute (CLSI). Then, cation-adjusted MHB (CA-MHB) was used to prepare serial two fold dilutions of the compounds in test tubes. The concentration of the inoculums suspension was also adjusted to approximately 5×10^5 Colony Forming Units (CFU)/mL using MHB. Bacteria were incubated with the compounds for 24 hours at 35° C. prior to reading. In this study, Gram-positive strains used were Staphylococcus aureus DM4001 and Methicillin-resistant Staphylococcus aureus (MRSA) DM9808. Gram-negative strains used were Klebsiella pneumoniae DM4299, Pseudomonas aeruginosa ATCC23155 and Escherichia coli ATCC27922.
(§2) Methods used are as described in Example 1 above.

Another data set has as its system Pseudomonas aeruginosa. It is filed as cell-based. The method, then: as §1, §2
In the next data set the test system is Staphylococcus aureus. It is filed as cell-based. The method, then: as §1, §2
Data set [2] deals with Klebsiella pneumoniae DM4299. It is filed as cell-based. The method, then:
as §1

The subject of the next data set is Klebsiella pneumoniae. It is filed as cell-based. How it is done:
The minimum inhibitory concentration (MIC) was determined using the broth microdilution method. Bacterial cells (shown in Table 6) are grown in Mueller Hinton Broth (MHB) overnight. 100 μL of adjusted inoculum in MHB is added to 100 μL of each dilution of peptide or antibiotics dissolved in the broth, so as to yield a final cell density of 10^5 to 10^6 cfu/mL in each well. The plates were incubated at 35° C. for 24 h and the absorbance at 600 nm (OD600) was monitored every 30 minutes. A positive control well contained the broth and organisms (no peptides/antibiotics), and a negative control tube contains only the broth. The MIC of peptides for each clinical isolate or reference organism was recorded as the lowest concentration of peptide/antibiotic that inhibited visible growth of the test organism. To study the effect of Mg2+ on MIC of branched peptides, the concentration of MgCl2 was varied in MHB and the MIC was determined as before.

For data set [3], the system named is P. aeruginosa. Kind of data set: Bacterial viability assay (ED50). It is filed as cell-based, Pseudomonas aeruginosa. The conditions noted are these: P. aeruginosa ATCC 9027 and ATCC 27853; FIG. 12. The method, then: Cell viability was conducted for two Gram-negative bacteria (Pa 9027 and Pa 27853). The cultures were grown overnight in TS agar and a few isolated colonies were inoculated to achieve a turbidity equivalent to 0.5 McFarland standard. The cell concentration was adjusted to […] with 10 mM phosphate buffer and separated into different tubes to get final concentration of 10^5 CFU/ml. The peptides were added to the individual tubes to obtain concentrations of ⅛ MIC, ¼ MIC, ½ MIC, 1 MIC, 2 MIC and 4 MIC. The tubes were incubated at 37° C. for 22 h. Serial dilution was performed and 100 uL of the suspension was aliquot into MHA plate. The plates were incubated for 24 h at 37° C. for colony counting. Positive control was performed at 0 h and 22 h.

The subject of data set [4] is P. aeruginosa. As to the kind of experiment: Time-kill kinetics assay. It is filed as cell-based, Pseudomonas aeruginosa. The conditions noted are these: both Pseudomonas strains at 1× and 2×MIC; compared with B2088; FIG. 13. The method, then: The kinetics of bactericidal action was performed by the assay reported before. Briefly, few colonies of overnight grown P. aeruginosa strains were collected from tryptic soy agar plate and suspended US pharmacopeia phosphate buffer (pH 7.2). The suspension was adjusted to an initial inoculum of 10^6 CFU/mL and incubated with various concentrations of B2088 and B2088—99 at 35° C. 0.1 mL aliquots were withdrawn at various time intervals, diluted […] fold using the same buffer, plated on tryptic soy agar plates and incubated at 35° C. The colonies were counted after 24 h incubation and expressed as CFU/mL. Buffer without peptides served as a positive control and % bacterial viability is estimated using the following equation:
Bacterial viability=1−(CFU/mL)peptide/(CFU/mL)control*100

The subject of another data set is P. aeruginosa ATCC 9027. Kind of data set: Outer membrane (OM) permeability assay (NPN). It is filed as cell-based, Pseudomonas aeruginosa. As to conditions: FIG. 14. How it is done:
To probe the OM permeability of peptides, a membrane impermeable probe N-phenyl-1-naphthyl amine (NPN) was used in the present study. The overnight cultured P. aeruginosa ATCC 9027 cells were harvested by centrifugation at 3000 rpm, 4° C. The resulting pellet was washed twice and resuspended in 5 mM HEPES buffer (pH 7.2) to OD600 of 0.4. The cells were placed in a 10 mm stirred cuvette and NPN was added to a final concentration of 10 μM. Appropriate concentrations of B2088 was added and the increase in fluorescence intensity was monitored on a Quanta Master fluorescence spectrophotometer (Photon Technology International, New Jersey, USA). The excitation and emission wavelengths were set at 350 and 410 nm with slid widths at 2 and 5 nm, respectively. The % NPN uptake was calculated relative to increase in NPN fluorescence intensity after the addition of 50 μM polymyxin B.

Data set [5] has as its system Escherichia coli ATCC27922. It is filed as cell-based. How it is done:
as §1

The test system of data set [6] is red blood cells (RBCs) of New Zealand white rabbits. As to the kind of experiment: in vitro. It is filed as cell-based, rabbit. The method, then: Fresh red blood cells (RBCs) of New Zealand white rabbits were used for this experiment. The RBCs obtained were centrifuged at 3000 rpm for 10 min. Supernatant was removed and washed twice with sterile PBS Buffer (20 mM, 100 mM NaCl, pH 7). The RBCs were further diluted to 8% stock solution in PBS. Peptides were dissolved in PBS with desired stock concentrations. When compounds were mixed with RBCs, desired concentration of 4% RBCs was obtained. For C14V2D and C16V2D, they were dissolved in Dimethylformamide ([…]; DMF) with desired stock concentrations. When compounds were mixed with RBCs, desired concentration of 4% RBCs and 0.5% DMF was obtained. DMF concentration of <1% was used as it had negligible hemolytic activity on RBCs. The mixtures were added to 1.5 mL centrifuge tubes and incubated at 37° C. for 1 h. After incubation, the blood was centrifuged at 3000 rpm for 3 min at 4° C. 100 μL of the supernatant was transferred into transparent 96-well plate. The absorbance was measured at 576 nm using a microplate reader (TECAN Infinite 200M Pro). 2% Triton X-100 was used as positive control. PBS was used as negative controls. The amount of hemoglobin released was calculated using the following equation: […]

A short description of data set [7]: in vitro. It is filed as cell-based. The conditions noted are these: human. The method, then:
The cytotoxicity of individual compounds screened was determined by the lactate dehydrogenase (LDH) assay. In brief, human corneal fibroblast cells were plated at a density of 10,000 cells per well in a 96-well opaque white plate (SPL Life Sciences Inc). Test compounds of various concentrations and controls were added to appropriate wells such that the final volume is 100 μl in each well. After 4 hours of exposure to the test compounds, the plates were removed from 37° C. incubator and equilibrated to 22° C. for 30 minutes. One hundred microliters of Cyto-TOX One reagent (Promega Inc. USA) was added to each well and the LDH assay was performed according to manufacturer's instructions. Fluorescence was assessed at an excitation wavelength of 560 nm and an emission wavelength of 590 nm using a micro-plate reader (Tecan Infinite 200 Pro, Switzerland). The cells exposed to 1% Triton X-100 were used as a positive control and treated as maximum releasing of LDH. The percent specific cytotoxicity of each compound was determined using the formula below (I=intensity):
% Cytotoxicity=[(Iexperiments)−(Inegative controls)]/[Ipositive controls)−(Inegative controls)]×100

The nature of data set [8]: in vitro. It is filed as cell-based. As to conditions: human. How it is done: Cells were plated at a density of 10,000 cells per well in a 96-well opaque white plate (SPL Life Sciences Inc. Korea). Test compounds of various concentrations and controls were added to appropriate wells such that the final volume is 100 μl in each well. After 4 hours of exposure to the test compounds, the plates were removed from 37° C. incubator and equilibrated to 22° C. for 30 minutes. One hundred microliters of CellTiter-Glo reagent (Promega Inc. USA) was added to each well and the ATP assay was performed according to manufacturer's instructions. Luminescence was assessed using a micro-plate reader (Tecan Infinite 200 Pro, Switzerland). The cells exposed to 1% Triton X-100 were used as a positive control. The percent cell viable of each compound was determined using the formula below (L=Luminescence detected):
% Viability=[(Lnegative controls)−(Lexperiments)]/[(Lnegative controls)−(Lpositive controls)]×100
The source holds these as a separate data set.

The term MIC denotes the lowest concentration that inhibits growth of the organism. A lower MIC goes with a more susceptible organism. Take `N=C(N)NCCC[C@H](NC(=O)CNC(=O)CNC(=O)[C@H](CCCCN)NC(=O)[C@H](CCCNC(=N)N)NC(=O)CNC(=O)[C@@H](N)CCCNC(=N)N)C(=O)N[C@@H](CCCNC(=N)N)C(=O)NCCCC[C@H](NC(=O)[C@H](CCCNC(=N)N)NC(=O)[C@H](CCCNC(=N)N)NC(=O)CNC(=O)CNC(=O)[C@H](CCCCN)NC(=O)[C@H](CCCNC(=N)N)NC(=O)CNC(=O)[C@@H](N)CCCNC(=N)N)C(=O)N[C@@H](CCCCN)C(=O)O` [Peptide G2D, (RGRKGGRR)2KK] (I: H-RGRKGGRRKK-OH / II: H-RGRKGGRR; amide I:9-II:C; N-terminus and C-terminus assumed): the MIC in [1] worked out at 5.89 µM (≈ 12.5 µg/mL); against Pseudomonas aeruginosa it was 2.94 µM (≈ 6.24 µg/mL); in the data set with Staphylococcus aureus it was 5.66 µM (≈ 12 µg/mL); in data set [2] it was 2.94 µM (≈ 6.24 µg/mL); against Klebsiella pneumoniae (24 h), 2.9 µM (≈ 6.16 µg/mL). The “ED50 compared with B2088” value in the data set on P. aeruginosa [3] is “two times lower”. The kill kinetics result with P. aeruginosa [4] is given as “faster kill kinetics”. In the data set on P. aeruginosa ATCC 9027, the “PC50 (concentration for 50% increase in NPN fluorescence intensity) compared with B2088” value is “higher”.

What is called CC50 is the concentration at which the toxic effect on the cells reaches its halfway point. Consider `CC(C)[C@H](NC(=O)[C@H](CCCCN)NC(=O)[C@H](CCCNC(=N)N)NC(=O)CNC(=O)[C@@H](N)CCCNC(=N)N)C(=O)N[C@H](C(=O)N[C@@H](CCCNC(=N)N)C(=O)N[C@@H](CCCNC(=N)N)C(=O)NCCCC[C@H](NC(=O)[C@H](CCCNC(=N)N)NC(=O)[C@H](CCCNC(=N)N)NC(=O)[C@@H](NC(=O)[C@@H](NC(=O)[C@H](CCCCN)NC(=O)[C@H](CCCNC(=N)N)NC(=O)CNC(=O)[C@@H](N)CCCNC(=N)N)C(C)C)C(C)C)C(=O)N[C@@H](CCCCN)C(=O)O)C(C)C` [Peptide V2D, (RGRKVVRR)2KK] (I: H-RGRKVVRRKK-OH / II: H-RGRKVVRR; amide I:9-II:C), for which the MIC in [1] is 2.73 µM (≈ 6.25 µg/mL); in the data set on Pseudomonas aeruginosa it was 5.46 µM (≈ 12.5 µg/mL); against Staphylococcus aureus, 5.46 µM (≈ 12.5 µg/mL); in data set [5] it was 2.73 µM (≈ 6.25 µg/mL); in data set [2] it was 5.46 µM (≈ 12.5 µg/mL); against Klebsiella pneumoniae, 2.7 µM (≈ 6.19 µg/mL). The HC10 in data set [6] (red cells of rabbit, 1 h) is greater than 2000 µg/mL. In addition, the CC50 at 4 h in the data set “in vitro [7]” and in “in vitro [8]” was greater than 1000 µM in each case.

For `CCCCCCCCCCCC(=O)N[C@@H](CCCNC(=N)N)C(=O)NCC(=O)N[C@@H](CCCNC(=N)N)C(=O)N[C@@H](CCCCN)C(=O)N[C@H](C(=O)N[C@H](C(=O)N[C@@H](CCCNC(=N)N)C(=O)N[C@@H](CCCNC(=N)N)C(=O)NCCCC[C@H](NC(=O)[C@H](CCCNC(=N)N)NC(=O)[C@H](CCCNC(=N)N)NC(=O)[C@@H](NC(=O)[C@@H](NC(=O)[C@H](CCCCN)NC(=O)[C@H](CCCNC(=N)N)NC(=O)CNC(=O)[C@H](CCCNC(=N)N)NC(=O)CCCCCCCCCCC)C(C)C)C(C)C)C(=O)N[C@@H](CCCCN)C(=O)O)C(C)C)C(C)C` [Peptide C12-V2D, (C11H23—CO—NH—RGRKVVRR)2KK] (I: Lauroyl-RGRKVVRRKK-OH / II: Lauroyl-RGRKVVRR; amide I:9-II:C), the MIC (in [1]; against Pseudomonas aeruginosa; against Staphylococcus aureus; in data set [5]; in data set [2]) was 4.71 µM (≈ 12.5 µg/mL) each time. Besides, the HC10 in data set [6] was 542.8 ± 53.0 µg/mL.

As to `CCCCCC(=O)N[C@@H](CCCNC(=N)N)C(=O)NCC(=O)N[C@@H](CCCNC(=N)N)C(=O)N[C@@H](CCCCN)C(=O)N[C@H](C(=O)N[C@H](C(=O)N[C@@H](CCCNC(=N)N)C(=O)N[C@@H](CCCNC(=N)N)C(=O)NCCCC[C@H](NC(=O)[C@H](CCCNC(=N)N)NC(=O)[C@H](CCCNC(=N)N)NC(=O)[C@@H](NC(=O)[C@@H](NC(=O)[C@H](CCCCN)NC(=O)[C@H](CCCNC(=N)N)NC(=O)CNC(=O)[C@H](CCCNC(=N)N)NC(=O)CCCCC)C(C)C)C(C)C)C(=O)N[C@@H](CCCCN)C(=O)O)C(C)C)C(C)C` [Peptide C6-V2D, (C5H11—CO—NH—RGRKVVRR)2KK] (I: Hexanoyl-RGRKVVRRKK-OH / II: Hexanoyl-RGRKVVRR; amide I:9-II:C), the MIC was found to be 1.26 µM (≈ 3.13 µg/mL) in [1]; 5.03 µM (≈ 12.5 µg/mL) in the data set with Pseudomonas aeruginosa; 2.51 µM (≈ 6.24 µg/mL) with Staphylococcus aureus; 2.51 µM (≈ 6.24 µg/mL) in [5]; 5.03 µM (≈ 12.5 µg/mL) in data set [2]. This molecule also showed an HC10 in [6] (red cells of rabbit, 1 h) greater than 2000 µg/mL.
